From paper PMC12379310 (Virology Journal, 2025)
pIC50: −log10 of the molar value.

Target: human ether-α-go-go related gene (hERG) potassium channel (Kv11.1) (Homo sapiens, UniProt Q12809)
Experiment: automated whole-cell patch clamp
Assay type: cell-based

human ether-α-go-go related gene (hERG) potassium channel (Kv11.1), sequence (Q12809 whole entry): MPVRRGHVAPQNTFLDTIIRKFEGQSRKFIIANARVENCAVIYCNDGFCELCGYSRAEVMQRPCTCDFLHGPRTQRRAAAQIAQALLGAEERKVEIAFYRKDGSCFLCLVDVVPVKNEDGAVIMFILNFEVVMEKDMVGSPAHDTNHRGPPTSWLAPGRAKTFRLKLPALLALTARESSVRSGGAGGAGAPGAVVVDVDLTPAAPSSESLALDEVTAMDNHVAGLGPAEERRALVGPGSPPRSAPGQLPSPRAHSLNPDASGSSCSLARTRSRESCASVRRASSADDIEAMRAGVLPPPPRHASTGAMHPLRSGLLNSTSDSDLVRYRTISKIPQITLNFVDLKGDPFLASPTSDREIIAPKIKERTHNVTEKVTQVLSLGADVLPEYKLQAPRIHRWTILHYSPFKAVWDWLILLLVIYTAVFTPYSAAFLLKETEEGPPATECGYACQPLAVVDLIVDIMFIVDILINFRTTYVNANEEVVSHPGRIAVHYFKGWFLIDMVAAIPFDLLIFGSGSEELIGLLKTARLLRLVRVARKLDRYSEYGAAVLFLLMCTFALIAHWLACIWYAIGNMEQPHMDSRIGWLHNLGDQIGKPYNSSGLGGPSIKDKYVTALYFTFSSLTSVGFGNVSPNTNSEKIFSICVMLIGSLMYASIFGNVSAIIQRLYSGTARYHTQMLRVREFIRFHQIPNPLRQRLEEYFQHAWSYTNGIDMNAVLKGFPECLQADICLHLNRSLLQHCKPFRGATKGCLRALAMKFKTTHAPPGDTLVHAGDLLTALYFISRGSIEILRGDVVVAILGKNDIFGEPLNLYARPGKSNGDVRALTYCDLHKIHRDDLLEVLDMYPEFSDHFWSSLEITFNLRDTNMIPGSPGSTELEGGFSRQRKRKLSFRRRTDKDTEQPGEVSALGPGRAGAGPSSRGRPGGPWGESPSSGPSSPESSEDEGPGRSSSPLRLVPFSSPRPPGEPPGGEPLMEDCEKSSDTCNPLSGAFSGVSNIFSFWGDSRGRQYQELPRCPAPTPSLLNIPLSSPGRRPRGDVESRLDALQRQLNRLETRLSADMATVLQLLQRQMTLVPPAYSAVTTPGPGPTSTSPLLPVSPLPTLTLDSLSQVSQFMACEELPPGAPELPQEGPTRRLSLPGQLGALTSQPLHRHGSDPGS

CCOC(=O)c1c(CSc2ccccc2)n(C)c2cc(Br)c(O)c(CN(C)C)c12 [Arbidol]
pIC50: 6.52
